Source: ChEMBL document CHEMBL1139249, “N,N-Dichloroaminosulfonic acids as novel topical antimicrobial agents” (Bioorg Med Chem Lett, 2009)
Converted amounts (≈) assume the structure as drawn.

Key:
[1] = Therapeutic index, ratio of CT50 for mouse L929 cells to MBC for Staphylococcus aureus; assay type: cell-based; details: read-out: TI
Candida albicans [2] = assay: Antifungal activity against Candida albicans ATCC 10231 after 16 to 20 hrs by CLSI standard method; assay type: functional
Staphylococcus aureus [3] = assay: Antibacterial activity against Staphylococcus aureus ATCC 29213 after 16 to 20 hrs by CLSI standard method; assay type: functional
Escherichia coli [4] = assay: Antibacterial activity against Escherichia coli ATCC 25922 after 16 to 20 hrs by CLSI standard method; assay type: functional
[5] = Cytotoxicity against mouse L929 cells; assay type: cell-based; details: read-out: CT50 (the source's name)
[6] = Therapeutic index, ratio of CT50 for mouse L929 cells to MBC for Escherichia coli; assay type: cell-based; details: read-out: TI
[7] = Therapeutic index, ratio of CT50 for mouse L929 cells to MFC for Candida albicans; assay type: cell-based; details: read-out: TI
[8] = Aqueous solubility at pH 4; assay type: physicochemical; details: aqueous solution
Candida albicans [9] = assay: Antifungal activity against Candida albicans MCC 50319 after 16 to 20 hrs by CLSI standard method; assay type: functional
Staphylococcus aureus [10] = assay: Antibacterial activity against Staphylococcus aureus MCC 91731 after 16 to 20 hrs by CLSI standard method; assay type: functional
Escherichia coli [11] = assay: Antibacterial activity against Escherichia coli MCC 80392 after 16 to 20 hrs by CLSI standard method; assay type: functional

Row | half-life [8] | Structure (SMILES) | selectivity ratio [1] | MFC (Candida albicans [2]) | MBC (Staphylococcus aureus [3]) | MBC (Escherichia coli [4]) | CC50 [5] | selectivity ratio [6] | selectivity ratio [7] | MFC (Candida albicans [9]) | MBC (Staphylococcus aureus [10]) | MBC (Escherichia coli [11])
1 | 80 days | CC(C)(CS(=O)(=O)O)C(=O)OCC(C)(C)N(Cl)Cl | 8 | 16 µg/mL (≈ 49.7 µM) | 8 µg/mL (≈ 24.8 µM) | 4 µg/mL (≈ 12.4 µM) | 840 µg/mL (≈ 2610 µM) | 8 | 2 |  |  | 
2 | 44 days | CC(=O)NS(=O)(=O)CC(C)(C)N(Cl)Cl | 8 | 64 µg/mL (≈ 243 µM) | 1 µg/mL (≈ 3.8 µM) | 2 µg/mL (≈ 7.6 µM) |  | 8 | 2 |  |  | 
3 | > 95 days | CC(C)(CC(=O)OCCS(=O)(=O)O)N(Cl)Cl | 8 | 64 µg/mL (≈ 218 µM) | 2 µg/mL (≈ 6.8 µM) | 2 µg/mL (≈ 6.8 µM) | 270 µg/mL (≈ 918 µM) | 8 | 2 |  |  | 
4 | 16 days | CC(C)(CCCS(=O)(=O)O)N(Cl)Cl | 8 |  |  |  | 640 µg/mL (≈ 2560 µM) | 8 | 2 | > 128 µg/mL | 8 µg/mL (≈ 32 µM) | 8 µg/mL (≈ 32 µM)
5 | 64 days | CC(C)(COC(=O)CCS(=O)(=O)O)N(Cl)Cl | 8 |  |  | 2 µg/mL (≈ 6.8 µM) | 130 µg/mL (≈ 442 µM) | 8 | 2 | 4 µg/mL (≈ 13.6 µM) | 1 µg/mL (≈ 3.4 µM) | 

Second part, the compound before the results:

Row | Structure (SMILES) | half-life [8] | selectivity ratio [1] | MFC (Candida albicans [2]) | MBC (Staphylococcus aureus [3]) | MBC (Escherichia coli [4]) | CC50 [5] | selectivity ratio [6] | selectivity ratio [7] | MFC (Candida albicans [9]) | MBC (Staphylococcus aureus [10]) | MBC (Escherichia coli [11])
6 | CC(C)(CCS(=O)(=O)O)N(Cl)Cl | 174 days | 8 | 16 µg/mL (≈ 67.8 µM) | 4 µg/mL (≈ 16.9 µM) | 4 µg/mL (≈ 16.9 µM) | 1900 µg/mL (≈ 8050 µM) | 8 | 2 |  |  | 
7 | CC(C)(CP(=O)(O)O)N(Cl)Cl | 23 days | 8 | 16 µg/mL (≈ 72.1 µM) | 16 µg/mL (≈ 72.1 µM) | 8 µg/mL (≈ 36 µM) | 130 µg/mL (≈ 586 µM) | 8 | 2 |  |  | 
8 | CCOP(=O)(O)CC(C)(C)N(Cl)Cl | > 18 days | 8 |  |  |  | 80 µg/mL (≈ 320 µM) | 8 | 2 | 32 µg/mL (≈ 128 µM) | 2 µg/mL (≈ 8 µM) | 
9 | CC(C)(CS(=O)(=O)CCS(=O)(=O)O)N(Cl)Cl | > 95 days | 8 | 64 µg/mL (≈ 204 µM) | 8 µg/mL (≈ 25.5 µM) | 4 µg/mL (≈ 12.7 µM) | 1820 µg/mL (≈ 5790 µM) | 8 | 2 |  |  | 
10 | CC(C)(CS(=O)(=O)[O-])N(Cl)Cl.[Na+] | > 200 days | 8 |  |  |  | 1200 µg/mL | 8 | 2 | 32 µg/mL | 1 µg/mL | 4 µg/mL
